The values below come from publication PMC9405846 (2022).

The structures appear in SMILES notation.

Experiment [1] deals with Aptamer 1 (Apt1) (RNA, aptamer) CCAUGUAAGCGCGGUACUCUUACGUGA
Put plainly: electrochemical impedance (EIS). As to conditions: 0.1 M KCl, 3 mM MgCl2; 100 µM; response about 15 times lower than with NH4+.

Experiment [2] has as its system Aptamer 2 (Apt2) (RNA, aptamer) UCGCGUCUAGCCCAUUGAUAGGCCCGA
Put plainly: electrochemical impedance (EIS). The settings on record: 0.1 M KCl, 3 mM MgCl2; 100 µM; response about 15 times lower than with NH4+.

For experiment [3], the system named is Aptamer 3 (Apt3) (RNA, aptamer) UCCACGUGGUGCCAUACUCCGGCGUGG
Put plainly: electrochemical impedance (EIS). The settings on record: 0.1 M KCl, 3 mM MgCl2; 100 µM; response about 15 times lower than with NH4+.

The subject of experiment [4] is Aptamer 4 (Apt4) (RNA, aptamer) CCUCUCAGGCUUGUACUGCCACGAGGA
Put plainly: electrochemical impedance (EIS), Langmuir-Hill fit. The settings on record: 0.1 M KCl, 3 mM MgCl2; PBS, pH about 7, 1 mM [Fe(CN)6]3-/4-, 15 min incubation; decimal comma as printed.

Experiment [5] concerns Aptamer 1 (Apt1) (RNA, aptamer) CCAUGUAAGCGCGGUACUCUUACGUGA
Put plainly: electrochemical impedance (EIS), Langmuir-Hill fit. The settings on record: 0.1 M KCl, 3 mM MgCl2; PBS, pH about 7, 1 mM [Fe(CN)6]3-/4-, 15 min incubation.

Experiment [6] relates to Aptamer 2 (Apt2) (RNA, aptamer) UCGCGUCUAGCCCAUUGAUAGGCCCGA
Put plainly: electrochemical impedance (EIS), Langmuir-Hill fit. As to conditions: 0.1 M KCl, 3 mM MgCl2; PBS, pH about 7, 1 mM [Fe(CN)6]3-/4-, 15 min incubation.

Experiment [7] deals with Control (random sequence) (RNA, other) CUGAAGGCAGUCCGGUGCCCGGCCGGG
Put plainly: electrochemical impedance (EIS). As to conditions: 0.1 M KCl, 3 mM MgCl2; PBS, pH about 7, 15 min incubation; tested up to 500 mM.

The subject of experiment [8] is Aptamer 5 (Apt5) (RNA, aptamer) GCCCUGGGCCGCUCAUUCCCUCUGGCU
Put plainly: electrochemical impedance (EIS), Langmuir-Hill fit. The settings on record: 0.1 M KCl, 3 mM MgCl2; PBS, pH about 7, 1 mM [Fe(CN)6]3-/4-, 15 min incubation.

In experiment [9] the test system is Aptamer 3 (Apt3) (RNA, aptamer) UCCACGUGGUGCCAUACUCCGGCGUGG
Put plainly: electrochemical impedance (EIS), Langmuir-Hill fit. As to conditions: 0.1 M KCl, 3 mM MgCl2; PBS, pH about 7, 1 mM [Fe(CN)6]3-/4-, 15 min incubation.

In the case of `CN(C)C`, the binding entry in experiment [1], in experiment [2] and in [3] was “weak” each time.

For `CNC`, the binding result in [1], in [2] and in [3] was “weak” throughout.

Regarding `N`, the equilibrium dissociation constant (Kd) – broadly, the constant that tells how readily two partners part at equilibrium – is listed as 6,6 mM in [4]; 36.59 mM in [5]; 16.11 mM in experiment [6]; 50 mM in [8]; 131 mM in [9]. Also, the binding entry in experiment [7] is “no”.
